This series has as its system MDA-MB-231. Put plainly: alamar-blue cell viability / cytotoxicity of PEI, doxorubicin and mixtures. In kind it is cell-based, human. As for the experimental part: All cells were maintained at 37° C. in a humidified incubator with 5% CO2. MDA-MB-231 growing in the DMEM medium were harvested by trypsin-EDTA, and an initial concentration of 1×106 and further dilutions were made and seeded into wells of a 96-well plate (100 μL for each well). The medium without cells was used as negative control, and the plate was incubated for 18 h to allow cell attachment. Then another 100 μL, medium with desirable concentration drug were added into the well. After 24 h and 48 h incubation, 22 μL of alamar-blue (0.5 mg per mL) was added to each well. The absorbance was measured after further 4 h incubation at 530 nm and 590 nm using PowerwaveXPS plate reader. The plate was also incubated for the following 24 hours to measure the maximum dye reduction. Percentage reduction of alamar-blue is typically calculated using equation (1):
[formula] where At, An and Ac are recorded absorbance of test wells for test group, negative control group and positive control group.
Referring to FIG. 2, the cell viability is shown as a function of the molecular weight of the cationic polymer. […] All cells were maintained at 37° C. in a humidified incubator with 5% CO2. MDA-MB-231, 4T1 and HUVECs, HCC-1806, Hs-587T, MCF-7 cells growing in the log phase of growth were harvested by trypsin-EDTA, and an initial concentration of 1×10^6 and further dilutions were made and seeded into wells of a 96-well plate (100 μL, for each well). The medium without cells was used as negative control, and the plate was incubated for 18 h to allow cell attachment. Then another 100 μL medium with desirable concentration drug were added into the well. After 24 h and 48 h incubation, 22 μL, of alamar-blue (0.5 mg per mL) was added to each well. The absorbance was measured after further 4 h incubation at 530 nm and 590 nm using Powerwave XPS plate reader. The plate was also incubated for the following 24 hours to measure the maximum dye reduction. Percentage reduction of alamar-blue is typically calculated using equation (1).

Structures are written as SMILES.

`COc1cccc2c1C(=O)c1c(O)c3c(c(O)c1C2=O)C[C@@](O)(C(=O)CO)C[C@@H]3O[C@H]1C[C@H](N)[C@H](O)[C@H](C)O1` [doxorubicin]: the cell viability entry (FIG. 1, drug concentrations between 0 μM and 5 μM) is reported as “approximately 70%”; the cell viability (FIG. 2, 0.3 to 0.6 μg doxorubicin per well, 0 μg of PEI) is 60-70%; the cell viability entry (FIG. 3 line 304, doxorubicin less than 5 μM) is listed as “about 70%”.

For the origin of these results see patent US10391112B2, “Cationic polymers as co-drugs for chemotherapeutic agents” (Northeastern University, priority 2015, dated 2019).
